The values below come from patent US9115152B2, “Alkylated piperazine compounds” (Genentech, Inc., priority 2011, dated 2015).

The first experiment deals with production of CD69 by B lymphocytes in human whole blood. Kind of experiment: CD69 Whole Blood Assay (CD69 Hu Blood FACS). It counts as cell-based. Conditions: Lymphocyte, stimulated with goat F(ab')2 anti-human IgM, 20 hours, CD69 positive of CD20 positive cells. The text has this:
A CD69 Whole Blood Assay can be conducted on Formula I compounds to determine the ability of compounds to inhibit the production of CD69 by B lymphocytes in human whole blood activated by crosslinking surface IgM with goat F(ab′)2 anti-human IgM (Example 907). CD69 is a type II C-type lectin involved in lymphocyte migration and cytokine secretion. CD69 expression represents one of the earliest available indicators of leukocyte activation and its rapid induction occurs through transcriptional activation (Vazquez et al (2009) Jour. of Immunology Published Oct. 19, 2009, doi:10.4049/jimmunol.0900839). Concentration-dependent inhibition of antigen receptor stimulation by selective Btk inhibitors induces cell surface expression of the lymphocyte activation marker CD69 (Honigberg et al (2010) Proc. Natl. Acad. Sci. 107(29):13075-13080). Thus, CD69 inhibition by selective Btk inhibitors may be correlated with therapeutic efficacy of certain B-cell disorders.
Human blood is obtained from healthy volunteers, with the following restrictions: 1 week drug-free, non-smokers. Blood (approximately 20 mls to test 8 compounds) is collected by venipuncture into Vacutainer® (Becton, Dickinson and Co.) tubes with sodium heparin.
Solutions of Formula I compounds at 10 mM in DMSO are diluted 1:10 in 100% DMSO, then are diluted by three-fold serial dilutions in 100% DMSO for a ten point dose-response curve. The compounds are further diluted 1:10 in PBS and then an aliquot of 5.5 μl of each compound is added in duplicate to a 2 ml 96-well plate; 5.5 μl of 10% DMSO in PBS is added as control and no-stimulus wells. Human whole blood—HWB (100 μl) is added to each well. After mixing the plates are incubated at 37° C., 5% CO2, 100% humidity for 30 minutes. Goat F(ab′)2 anti-human IgM (10 μl of a 500 μg/ml solution, 50 μg/ml final) is added to each well (except the no-stimulus wells) with mixing and the plates are incubated for an additional 20 hours. At the end of the 20 hour incubation, samples are incubated with fluorescent labeled antibodies for 30 minutes, at 37° C., 5% CO2, 100% humidity. Include induced control, unstained and single stains for compensation adjustments and initial voltage settings. Samples are then lysed with PharM Lyse™ (BD Biosciences Pharmingen) according to the manufacturer's instructions. Samples are then transferred to a 96 well plate suitable to be run on the BD Biosciences HTS 96 well system on the LSRII machine. Data acquired and Mean Fluorescence Intensity values were obtained using BD Biosciences DIVA Software. Results are initially analyzed by FACS analysis software (Flow Jo).
Broadly, the IC70 is the concentration at which the effect reaches the 70% level. Read a low IC70 as an effect from little substance. Compound `C[C@H]1CN(C2COC2)CCN1c1ccc(Nc2cc(-c3cc(F)cc(N4CCc5c(cc6n5CCCC6)C4=O)c3CO)cn(C)c2=O)nc1` [Compound 101, (S)-2-(5-fluoro-2-(hydroxymethyl)-3-(1-methyl-5-(5-(2-methyl-4-(oxetan-3-yl)piperazin-1-yl)pyridin-2-ylamino)-6-oxo-1,6-dihydropyridin-3-yl)phenyl)-3,4,6,7,8,9-hexahydropyrido[3,4-b]indolizin-1(2H)-one] showed an IC70 of 33.8 nM.
The same measure, in the same setting: then `C[C@H]1CN(C2COC2)CCN1c1ccc(Nc2cc(-c3cc(F)cc(-n4ncc5c6c(sc5c4=O)CCCC6)c3CO)cn(C)c2=O)nc1` [Compound 102, (S)-5-[5-fluoro-2-(hydroxymethyl)-3(1-methyl-5-(5-(2-methyl-4-(oxetan-3-yl)piperazin-1-yl)pyridin-2-ylamino)-6-oxo-1,6-dihydropyridin-3-yl)phenyl]-8-thia-4,5-diazatricyclo[7.4.0.02,7]trideca-1(9),2(7),3-trien-6-one], with 31 nM.
Still for that read-out and setting: in the case of `C[C@H]1CN(C2COC2)CCN1c1ccc(Nc2cc(-c3cc(F)cc(N4CCn5c(cc6c5CC(C)(C)C6)C4=O)c3CO)cn(C)c2=O)nc1` [Compound 103, (2S)-10-[5-fluoro-2-(hydroxymethyl)-3-[1-methyl-5-({5-[2-methyl-4-(oxetan-3-yl)piperazin-1-yl]pyridine-2-yl}amino)-6-oxo-1,6-dihydropyridin-3-yl]phenyl]-4,4-dimethyl-1,10-diazatricyclo[6.4.0.02,6]dodeca-2(6),7-dien-9-one] it was 14.5 nM; in that of `C[C@@H]1CN(c2ccc(Nc3cc(-c4cc(F)cc(N5CCn6c(cc7c6CCCC7)C5=O)c4CO)cn(C)c3=O)nc2)[C@@H](C)CN1C1COC1` [Compound 104, 2-(3-(5-(5-((2S,5R)-2,5-dimethyl-4-(oxetan-3-yl)piperazin-1-yl)pyridin-2-ylamino)-1-methyl-6-oxo-1,6-dihydropyridin-3-yl)-5-fluoro-2-(hydroxymethyl)phenyl)-3,4,6,7,8,9-hexahydropyrazino[1,2-a]indol-1(2H)-one], 15 nM; in that of `CC[C@H]1CN(C2COC2)CCN1c1ccc(Nc2cc(-c3cc(F)cc(N4CCn5c(cc6c5CCCC6)C4=O)c3CO)cn(C)c2=O)nc1` [Compound 105], 8 nM.
Same read-out and setting: in the case of `C[C@H]1CN(C2COC2)CCN1c1ccc(Nc2cc(-c3cc(F)cc(N4CCn5c(cc6c5CCCC6)C4=O)c3CO)cn(C)c2=O)nc1` [Compound 106, (S)-2-(5-fluoro-2-(hydroxymethyl)-3-(1-methyl-5-(5-(2-methyl-4-(oxetan-3-yl)piperazin-1-yl)pyridin-2-ylamino)-6-oxo-1,6-dihydropyridin-3-yl)phenyl)-3,4,6,7,8,9-hexahydropyrazino[1,2-a]indol-1(2H)-one] it was 19 nM.
`C[C@H]1CN(c2ccc(Nc3cc(-c4cc(F)cc(N5CCn6c(cc7c6CCCC7)C5=O)c4CO)cn(C)c3=O)nc2)CCN1C` [Compound 107, (S)-2-(3-(5-(5-(3,4-dimethylpiperazin-1-yl)pyridin-2-ylamino)-1-methyl-6-oxo-1,6-dihydropyridin-3-yl)-5-fluoro-2-(hydroxymethyl)phenyl)-3,4,6,7,8,9-hexahydropyrazino[1,2-a]indol-1(2H)-one] displayed an IC70 of 44 nM.
On the same count and under the same terms, then `C[C@@H]1CN(c2ccc(Nc3cc(-c4cc(F)cc(N5CCn6c(cc7c6CCCC7)C5=O)c4CO)cn(C)c3=O)nc2)CCN1C` [Compound 108, (R)-2-(3-(5-(5-(3,4-dimethylpiperazin-1-yl)pyridin-2-ylamino)-1-methyl-6-oxo-1,6-dihydropyridin-3-yl)-5-fluoro-2-(hydroxymethyl)phenyl)-3,4,6,7,8,9-hexahydropyrazino[1,2-a]indol-1(2H)-one], with 23 nM; and `C[C@@H]1CN(C)CCN1c1ccc(Nc2cc(-c3cc(F)cc(N4CCn5c(cc6c5CCCC6)C4=O)c3CO)cn(C)c2=O)nc1` [Compound 109, (R)-2-(3-(5-(5-(2,4-dimethylpiperazin-1-yl)pyridin-2-ylamino)-1-methyl-6-oxo-1,6-dihydropyridin-3-yl)-5-fluoro-2-(hydroxymethyl)phenyl)-3,4,6,7,8,9-hexahydropyrazino[1,2-a]indol-1(2H)-one], with 29 nM.
The same measure, in the same setting: in the case of `C[C@H]1CN(C)CCN1c1ccc(Nc2cc(-c3cc(F)cc(N4CCn5c(cc6c5CCCC6)C4=O)c3CO)cn(C)c2=O)nc1` [Compound 110, (S)-2-(3-(5-(5-(2,4-dimethylpiperazin-1-yl)pyridin-2-ylamino)-1-methyl-6-oxo-1,6-dihydropyridin-3-yl)-5-fluoro-2-(hydroxymethyl)phenyl)-3,4,6,7,8,9-hexahydropyrazino[1,2-a]indol-1(2H)-one] it was 6 nM.
The same measure, in the same setting: then `CN1CCN(c2ccc(Nc3cc(-c4cc(F)cc(N5CCn6c(cc7c6CCCC7)C5=O)c4CO)cn(C)c3=O)nc2)CC1CF` (centres unmarked) [Compound 111, 2-(5-fluoro-3-(5-(5-(3-(fluoromethyl)-4-methylpiperazin-1-yl)pyridin-2-ylamino)-1-methyl-6-oxo-1,6-dihydropyridin-3-yl)-2-(hydroxymethyl)phenyl)-3,4,6,7,8,9-hexahydropyrazino[1,2-a]indol-1(2H)-one], with 92 nM.
Compound `CN1C2COCC1CN(c1ccc(Nc3cc(-c4cc(F)cc(N5CCn6c(cc7c6CCCC7)C5=O)c4CO)cn(C)c3=O)nc1)C2` [Compound 112, 2-(5-fluoro-2-(hydroxymethyl)-3-(1-methyl-5-(5-(9-methyl-7-oxa-3,9-diaza-bicyclo[3.3.1]nonan-3-yl)pyridin-2-ylamino)-6-oxo-1,6-dihydropyridin-3-yl)phenyl)-3,4,6,7,8,9-hexahydropyrazino[1,2-a]indol-1(2H)-one] returned a concentration for an effect of 70% (IC70) of 170 nM.

Staying with this experiment, now noted: stimulated with goat F(ab')2 anti-human IgM, 20 hours, CD69 positive of CD20 positive cells, Table 2, unit inferred.
As to `C[C@@H]1CN(c2ccc(Nc3cc(-c4cc(F)cc(N5CCc6c(cc7n6CCCC7)C5=O)c4CO)cn(C)c3=O)nc2)[C@@H](C)CN1C1COC1` [Compound 126, 2-[3-[5-[[5-[(2S,5R)-2,5-dimethyl-4-(oxetan-3-yl)piperazin-1-yl]-2-pyridyl]amino]-1-methyl-6-oxo-3-pyridyl]-5-fluoro-2-(hydroxymethyl)phenyl]-3,4,6,7,8,9-hexahydropyrido[3,4-b]indolizin-1-one], the CD69 Hu Blood FACS (IC70) turned out to be 57.1 nM.
On to `C[C@H]1CN(C2COC2)CCN1c1ccc(Nc2cc(-c3cc(F)cc(-n4ncc5c(cc6n5CCCC6)c4=O)c3CO)cn(C)c2=O)nc1` [Compound 127, 2-[5-fluoro-2-(hydroxymethyl)-3-[1-methyl-5-[[5-[(2S)-2-methyl-4-(oxetan-3-yl)piperazin-1-yl]-2-pyridyl]amino]-6-oxo-3-pyridyl]phenyl]-6,7,8,9-tetrahydropyridazino[4,5-b]indolizin-1-one], for which the CD69 Hu Blood FACS (IC70) was 51 nM.
`C[C@H]1CN(C2COC2)CCN1c1ccc(Nc2cc(-c3cc(F)cc(N4CCn5c(cc6c5CC(C)(C)C6)C4=O)c3C(=O)O)cn(C)c2=O)nc1` [Compound 128, 2-(7,7-dimethyl-4-oxo-1,2,6,8-tetrahydrocyclopenta[3,4]pyrrolo[3,5-b]pyrazin-3-yl)-4-fluoro-6-[1-methyl-5-[[5-[(2S)-2-methyl-4-(oxetan-3-yl)piperazin-1-yl]-2-pyridyl]amino]-6-oxo-3-pyridyl]benzoic acid] displayed a CD69 Hu Blood FACS (IC70) of 5000 nM.
Still for that read-out and setting: then `CNC(=O)c1c(-c2cc(Nc3ccc(N4CCN(C5COC5)C[C@@H]4C)cn3)c(=O)n(C)c2)cc(F)cc1N1CCn2c(cc3c2CC(C)(C)C3)C1=O` [Compound 129, 2-(7,7-dimethyl-4-oxo-1,2,6,8-tetrahydrocyclopenta[3,4]pyrrolo[3,5-b]pyrazin-3-yl)-4-fluoro-N-methyl-6-[1-methyl-5-[[5-[(2S)-2-methyl-4-(oxetan-3-yl)piperazin-1-yl]-2-pyridyl]amino]-6-oxo-3-pyridyl]benzamide], with 472 nM; and `C[C@H]1CN(C2COC2)CCN1c1ccc(Nc2cc(-c3cccc(-n4ncc5c6c(sc5c4=O)CCCC6)c3CO)cn(C)c2=O)nc1` [Compound 130, 3-[2-(hydroxymethyl)-3-[1-methyl-5-[[5-[(2S)-2-methyl-4-(oxetan-3-yl)piperazin-1-yl]-2-pyridyl]amino]-6-oxo-3-pyridyl]phenyl]-6,7,8,9-tetrahydrobenzothiopheno[2,3-d]pyridazin-4-one], with 35.4 nM.
